The values that follow come from PubChem BioAssay AID1963964 (Molecular Pharmacology Branch, DTP, NCI, 2024).

For this test, the system named is 997726-040-R-J2-PDC tumor spheroids, viability. Put plainly: Anticancer human tumor 997726-040-R-J2-PDC patient-derived squamous cell lung carcinoma cell line growth inhibition [PI3K]. Conditions: spheroids with HUVEC and MSC; for viability, T/C: stronger effect = lower value. In a few lines: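 Stroma-containing spheroids: tumor line, pooled-donor HUVEC, hMSC. Treatments: targeted agents with PI3K inhibitors. Dosing: clinically relevant, half-log spacing, 10 microM ceiling without known Cmax. Read-out: cell viability.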

A word on the IC50: it is the concentration needed to halve the response being measured. The viability, T/C is the ratio of treated to control.
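Further: spheroids exposed to compounds for seven days before readout.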

With `Cn1cnc2c(F)c(Nc3ccc(Br)cc3Cl)c(C(=O)NOCCO)cc21` + CC(Nc1ncnc2nc[nH]c12)c1cc2cccc(Cl)c2c(=O)n1-c1ccccc1, the 50% inhibitory concentration (IC50) runs as follows: (curve of first compound, second compound 0.0316 µM) 0.553 µM; (curve of first compound, second compound 0.1 µM) 0.467 µM; (curve of first compound, second compound 0.316 µM) 0.319 µM; (curve of first compound, second compound 1 µM) 0.574 µM; (curve of first compound, second compound 3.16 µM) 0.0601 µM; (curve of first compound, second compound 10 µM) less than 0.00949 µM. The viability, T/C (second compound 0.0316 µM, first compound 0.00949 µM) is 66.7%; the viability, T/C (second compound 0.0316 µM, first compound 0.03 µM) was 64.8%; the viability, T/C (second compound 0.0316 µM, first compound 0.0949 µM) is 55.7%; the viability, T/C (second compound 0.0316 µM, first compound 0.3 µM) was 54.2%; the viability, T/C (second compound 0.0316 µM, first compound 0.949 µM) is 45.7%; the viability, T/C (second compound 0.0316 µM, first compound 3 µM) was 44.4%. The viability, T/C runs as follows: (second compound 0.1 µM, first compound 0.00949 µM) 84.3%; (second compound 0.1 µM, first compound 0.03 µM) 68.9%; (second compound 0.1 µM, first compound 0.0949 µM) 55.1%; (second compound 0.1 µM, first compound 0.3 µM) 54.9%; (second compound 0.1 µM, first compound 0.949 µM) 49.8%; (second compound 0.1 µM, first compound 3 µM) 41.5%. In addition, the viability, T/C was 71.5% (second compound 0.316 µM, first compound 0.00949 µM); 62.2% (second compound 0.316 µM, first compound 0.03 µM); 54.1% (second compound 0.316 µM, first compound 0.0949 µM); 51.1% (second compound 0.316 µM, first compound 0.3 µM); 49.1% (second compound 0.316 µM, first compound 0.949 µM); 40.5% (second compound 0.316 µM, first compound 3 µM). For the same molecule, the viability, T/C is 72% (second compound 1 µM, first compound 0.00949 µM); 70.1% (second compound 1 µM, first compound 0.03 µM); 51.5% (second compound 1 µM, first compound 0.0949 µM); 55.8% (second compound 1 µM, first compound 0.3 µM); 49.9% (second compound 1 µM, first compound 0.949 µM); 42.4% (second compound 1 µM, first compound 3 µM). The viability, T/C is 56.8% (second compound 3.16 µM, first compound 0.00949 µM); 56% (second compound 3.16 µM, first compound 0.03 µM); 46.3% (second compound 3.16 µM, first compound 0.0949 µM); 42.4% (second compound 3.16 µM, first compound 0.3 µM); 40.7% (second compound 3.16 µM, first compound 0.949 µM); 35.2% (second compound 3.16 µM, first compound 3 µM). The viability, T/C by setting is: (second compound 10 µM, first compound 0.00949 µM) 46.1%; (second compound 10 µM, first compound 0.03 µM) 38.5%; (second compound 10 µM, first compound 0.0949 µM) 32.6%; (second compound 10 µM, first compound 0.3 µM) 30.7%; (second compound 10 µM, first compound 0.949 µM) 32.6%; (second compound 10 µM, first compound 3 µM) 24.7%.
On to `CC(C)n1nc(-c2ccc3oc(N)nc3c2)c2c(N)ncnc21`, for which the viability, T/C is, setting by setting: (compound 0.000316 µM) 91.5% [middle of 4 runs]; (compound 0.001 µM) 85% [middle of 4 runs]; (compound 0.00316 µM) 87.5% [middle of 4 runs]; (compound 0.01 µM) 68% [middle of 4 runs]; (compound 0.0316 µM) 50.7% [middle of 4 runs]; (compound 0.1 µM) 14.7% [middle of 4 runs]. For the same molecule, the IC50 (curve of compound) was 28.8 nM [middle of 4 runs].
Turning to `Cn1nccc1Nc1nccc(-c2ccn(C(CO)c3ccc(Cl)c(F)c3)c(=O)c2)n1` (configuration not stated), the viability, T/C runs as follows: (compound 0.0316 µM) 93.2% [middle of 4 runs]; (compound 0.1 µM) 78.7% [middle of 4 runs]; (compound 0.316 µM) 73.9% [middle of 4 runs]; (compound 1 µM) 61.8% [middle of 4 runs]; (compound 3.16 µM) 61.6% [middle of 4 runs]; (compound 10 µM) 58.1% [middle of 4 runs]. Where the note is “curve of compound”, the IC50 was more than 10 µM.
In the case of `CCN1CCN(Cc2ccc(Nc3ncc(F)c(-c4cc(F)c5nc(C)n(C(C)C)c5c4)n3)nc2)CC1`, the viability, T/C runs as follows: (compound 0.00316 µM) 94% [middle of 4 runs]; (compound 0.01 µM) 88.4% [middle of 4 runs]; (compound 0.0316 µM) 74.3% [middle of 4 runs]; (compound 0.1 µM) 64.8% [middle of 4 runs]; (compound 0.316 µM) 68.5% [middle of 4 runs]. Under “curve of compound”, the IC50 is more than 1 µM.
